Assay results from ChEMBL document CHEMBL1129029, “Understanding the binding of 5-substituted 2'-deoxyuridine substrates to thymidine kinase of herpes simplex virus type-1” (J Med Chem, 1996).

Molecular target: T1, Thymidine kinase (Human herpesvirus 1 (strain SC16) (HHV-1) (Human herpes simplex virus1), UniProt P06479)
T1 sequence (P06479 whole entry): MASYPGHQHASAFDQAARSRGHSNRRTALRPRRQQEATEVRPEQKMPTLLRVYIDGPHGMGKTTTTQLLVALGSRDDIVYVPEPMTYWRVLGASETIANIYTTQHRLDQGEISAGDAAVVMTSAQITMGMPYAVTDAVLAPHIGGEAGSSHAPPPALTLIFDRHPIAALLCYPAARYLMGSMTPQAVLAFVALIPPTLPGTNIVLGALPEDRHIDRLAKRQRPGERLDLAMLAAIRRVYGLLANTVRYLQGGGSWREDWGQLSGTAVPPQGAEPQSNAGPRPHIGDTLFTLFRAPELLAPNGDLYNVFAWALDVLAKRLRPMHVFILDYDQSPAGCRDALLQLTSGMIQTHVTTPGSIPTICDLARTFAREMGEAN
Experiment: Binding affinity towards HSV-1 thymidine kinase

Row | SMILES | IC50
1 | O=c1[nH]c(=O)n([C@H]2C[C@H](O)[C@@H](CO)O2)cc1-c1ccc(Br)s1 | 3.5 µM
2 | O=c1[nH]c(=O)n([C@H]2C[C@H](O)[C@@H](CO)O2)cc1-c1ccoc1 | 1.5 µM
3 | O=c1[nH]c(=O)n([C@H]2C[C@H](O)[C@@H](CO)O2)cc1-c1cccs1 | 2.4 µM
4 | Cc1ccc(-c2cn([C@H]3C[C@H](O)[C@@H](CO)O3)c(=O)[nH]c2=O)s1 | 2.3 µM
5 | O=c1[nH]c(=O)n([C@H]2C[C@H](O)[C@@H](CO)O2)cc1-c1ccno1 | 36 µM
6 | O=c1[nH]c(=O)n([C@H]2C[C@H](O)[C@@H](CO)O2)cc1-c1ccsc1 | 4 µM
7 | O=c1[nH]c(=O)n([C@H]2C[C@H](O)[C@@H](CO)O2)cc1-c1ccc(Cl)s1 | 2.3 µM
8 | O=c1[nH]c(=O)n([C@H]2C[C@H](O)[C@@H](CO)O2)cc1-c1ccc(Cl)o1 | 28 µM
9 | O=c1[nH]c(=O)n([C@H]2C[C@H](O)[C@@H](CO)O2)cc1-c1ccc(Br)o1 | 51 µM
10 | O=c1[nH]c(=O)n([C@H]2C[C@H](O)[C@@H](CO)O2)cc1-c1ccco1 | 2.9 µM
11 | O=c1[nH]c(=O)n([C@H]2C[C@H](O)[C@@H](CO)O2)cc1-c1cc(Br)no1 | 34 µM
12 | O=c1[nH]c(=O)n([C@H]2C[C@H](O)[C@@H](CO)O2)cc1-c1cscc1Br | 143 µM
13 | O=c1[nH]c(=O)n([C@H]2C[C@H](O)[C@@H](CO)O2)cc1-c1sc(Br)cc1Br | 62 µM
14 | O=c1[nH]c(=O)n([C@H]2C[C@H](O)[C@@H](CO)O2)cc1-c1ccccc1 | 102 µM
15 | O=c1[nH]c(=O)n([C@H]2C[C@H](O)[C@@H](CO)O2)cc1-c1sccc1Br | 61 µM
16 | O=c1[nH]c(=O)n([C@H]2C[C@H](O)[C@@H](CO)O2)cc1-c1ccns1 | 3.1 µM
